Laboratory results taken from patent US20130022684A1 (HANMI SCIENCE CO., LTD., priority 2010, published 2013).
In brackets after ≈: the same amount, converted by molar mass. Read-outs that look alike come from different tables or passages of the source.

Key:
[1] = parameters: species or system SD rats; conditions: rat, in vivo, po, 88 mg
Method: The microcapsules were orally administered to 7 week-old male SD rats (Sprague Dawley, Samtako, 4 rats per one group, 7 days feeding ad libitum) by using Sonde. Blood samples were taken from the rats in a predetermined time interval, and the respective pharmacokinetic profiles were evaluated.

[2] = physchem; conditions: water, thermodynamic from solid
Method: Each of distilled water and artificial intestinal juice (pH 6.8; USP) was added thereto to fill 100 mL, and the mixture was vigorously blended for 1 hr and passed through a 0.45 μm filter, followed by HPLC analysis.

[3] = fenofibric acid in plasma; cited from earlier work

Row | AUC 0-24 [1] [µg·h/mL] | Cmax [1] [µg/mL] | AUC 0-24 ([1]; male, Sprague-Dawley) [µg·h/mL] | Cmax ([1]; male, Sprague-Dawley) [µg/mL] | solubility at 1 hr [2] [µg/mL] | SMILES | half-life of elimination in plasma [3] | time of peak plasma levels after administration [3]
1 | 3477.7 ± 558.9 | 309.4 ± 62.2 | – | – | – | CC(C)(Oc1ccc(C(=O)c2ccc(Cl)cc2)cc1)C(=O)[O-].C[N+](C)(C)CCO [Choline fenofibrate] | – | –
2 | – | – | 2078.3 ± 610.5 | 137.2 ± 37.9 | – | CC(C)OC(=O)C(C)(C)Oc1ccc(C(=O)c2ccc(Cl)cc2)cc1 [Fenofibrate] | – | –
3 | – | – | 2742.2 ± 218.1 | 209.3 ± 26.1 | 165 (≈ 518 µM) | CC(C)(Oc1ccc(C(=O)c2ccc(Cl)cc2)cc1)C(=O)O [Fenofibric acid, 2-[4-(4-chlorobenzoyl)phenoxy]-2-methyl-propanoic acid] | about 20 hours | about 5 hours
